The text below walks through data of the RepoRT retention time repository (doi:10.1007/s00216-021-03828-0).

Counter-ions that a name gives are not always drawn.

Common to all, as to settings: stereoisomer not certain
Data set [1] can be described thus: RP, Merck Supelco Ascentis Express C18, 100 × 2.1 mm, 2 µm, 40 °C, 0.2 mL/min, estimated dead time 1.1 min; A: water + 0.1% formic acid, pH 3; B: acetonitrile + 0.1% formic acid, pH 3; gradient (min/%B) 0/5 2/5 17/99.9 20/99.9.
Experiment in data set [2]: as above
The source holds these as a separate data set.

The nature of data set [3]: RP, Merck Supelco Ascentis Express C18, 100 × 2.1 mm, 2 µm, 40 °C, 0.4 mL/min, estimated dead time 0.55 min; A: water + 0.1% formic acid, pH 3; B: acetonitrile + 0.1% formic acid, pH 3; gradient (min/%B) 0/5 2/5 17/99.9 20/99.9.
Experiment in data set [4]: as above
The source holds these as a separate data set.

Data set [5] is described as follows: RP, Merck Supelco Ascentis Express C18, 100 × 2.1 mm, 2 µm, 39 °C, 0.3 mL/min, estimated dead time 0.73 min; A: water + 0.1% formic acid, pH 3; B: acetonitrile + 0.1% formic acid, pH 3; gradient (min/%B) 0/5 2/5 17/99.9 20/99.9.
A short description of data set [6]: RP, Merck Supelco Ascentis Express C18, 100 × 2.1 mm, 2 µm, 40 °C, 0.25 mL/min, estimated dead time 0.88 min; A: water + 0.1% formic acid, pH 3; B: acetonitrile + 0.1% formic acid, pH 3; gradient (min/%B) 0/5 2/5 17/99.9 20/99.9.
The nature of data set [7]: RP, Merck Supelco Ascentis Express C18, 100 × 2.1 mm, 2 µm, 40 °C, 0.35 mL/min, estimated dead time 0.63 min; A: water + 0.1% formic acid, pH 3; B: acetonitrile + 0.1% formic acid, pH 3; gradient (min/%B) 0/5 2/5 17/99.9 20/99.9.

With `O=C(O)c1cc(=O)c2cccc(O)c2[nH]1` [XANTHURENATE], the LC retention time in data set [1] was 4.17 min; in data set [2], 4.15 min; in data set [3], 2.28 min; in data set [4], 2.29 min; in data set [5], 3.33 min; in data set [6], 3.61 min. Besides, the LC retention time in data set [7] was 2.57 min.
On to `CSCC1OC(n2cnc3c(N)ncnc32)C(O)C1O` (stereo unspecified) [METHYLTHIOADENOSINE], for which the LC retention time was 4.07 min in data set [1]; 4.08 min in data set [2]; 2.3 min in data set [3]; 2.27 min in data set [4]; 2.98 min in data set [5]; 3.51 min in data set [6]. For the same compound, in data set [7], the LC retention time is 2.58 min.
As to `NC(Cc1ccccc1)C(=O)O` (stereo unspecified) [PHENYLALANINE], the LC retention time in data set [1] was 2.23 min; in data set [2], 2.26 min; in data set [3] it was 1.11 min; in data set [4], 1.1 min; in data set [5], 1.46 min; in data set [6], 1.77 min. The LC retention time in data set [7] is 1.26 min.
With `CC(O)(CC(=O)O)CC(=O)O` [3-HYDROXYMETHYLGLUTARATE], the LC retention time in data set [1] was 1.59 min; in data set [2], 1.6 min; in data set [3] it was 0.773 min; in data set [4] it was 0.76 min; in data set [5], 1.06 min; in data set [6], 1.26 min. Further, in data set [7], the LC retention time was 0.893 min.
On to `CC(=O)NC(CS)C(=O)O` (stereo unspecified) [N-ACETYLCYSTEINE], for which the LC retention time in data set [1] is 1.91 min; in data set [2], 1.92 min; in data set [3], 0.95 min; in data set [4], 0.937 min; in data set [5], 1.26 min; in data set [6], 1.52 min. Besides, in data set [7], the LC retention time was 1.09 min.
As for `CCC=CCC=CCC=CCC=CCC=CCCCC(=O)O` [EICOSAPENTAENOATE], the LC retention time in data set [1] is 15.9 min; in data set [2], 15.9 min; in data set [3] it was 13.9 min; in data set [4], 13.9 min; in data set [5] it was 14.7 min; in data set [6], 15.2 min. Moreover, the LC retention time in data set [7] was 14.2 min.
`CCCCCCCCCCCC=CCCCCC(=O)[O-]` [PETROSELINATE]: the LC retention time in data set [1] was 18.2 min; in data set [2], 18.1 min; in data set [3] it was 16.1 min; in data set [4], 16 min; in data set [5], 16.8 min; in data set [6], 17.4 min. For the same compound, in data set [7], the LC retention time was 16.4 min.
As to `NC(Cc1cc(I)c(Oc2ccc(O)c(I)c2)c(I)c1)C(=O)O` (stereo unspecified) [LIOTHYRONINE], the LC retention time in data set [1] was 8.2 min; in data set [2], 8.19 min; in data set [3], 7.03 min; in data set [4] it was 7 min; in data set [5], 7.45 min; in data set [6] it was 7.75 min. In addition, in data set [7], the LC retention time was 7.2 min.
For the compound `CC(C)CC(N)C(=O)O` (stereo unspecified) [LEUCINE], the LC retention time was 1.55 min in data set [1]; 1.56 min in data set [2]; 0.743 min in data set [3]; 0.727 min in data set [4]; 0.98 min in data set [5]; 1.22 min in data set [6]. In addition, the LC retention time in data set [7] is 0.873 min.
As to `CC(=O)c1ccc(O)cc1O` [2',4'-DIHYDROXYACETOPHENONE], the LC retention time in data set [1] is 7.01 min; in data set [2], 7 min; in data set [3] it was 5.17 min; in data set [4] it was 5.14 min; in data set [5], 5.94 min; in data set [6], 6.34 min. For the same compound, the LC retention time in data set [7] is 5.5 min.
For `Cc1cc2nc3c(=O)[nH]c(=O)nc-3n(CC(O)C(O)C(O)CO)c2cc1C` (stereo unspecified) [RIBOFLAVIN], the LC retention time in data set [1] was 5.39 min; in data set [2], 5.38 min; in data set [3], 4.24 min; in data set [4], 4.23 min; in data set [5], 4.65 min; in data set [6], 4.94 min. Besides, the LC retention time in data set [7] was 4.41 min.
Take `CCCCCCCCCCCCCC(=O)O` [MYRISTATE]: the LC retention time in data set [1] is 16.4 min; in data set [2] it was 16.4 min; in data set [3], 14.3 min; in data set [4] it was 14.2 min; in data set [5], 15 min; in data set [6], 15.6 min. The LC retention time in data set [7] is 14.6 min.
In the case of `CC(=O)C1CCC2C3CC=C4CC(OS(=O)(=O)O)CCC4(C)C3CCC12C` (stereo unspecified) [PREGNENOLONE SULFATE], the LC retention time in data set [1] was 10.1 min; in data set [2] it was 9.94 min; in data set [3], 8.55 min; in data set [4] it was 8.55 min; in data set [5] it was 9.19 min; in data set [6], 9.46 min. For the same compound, the LC retention time in data set [7] was 8.79 min.
In the case of `O=C(O)CCCCCCCC(=O)O` [AZELATE], the LC retention time in data set [1] was 6.98 min; in data set [2], 6.89 min; in data set [3], 5.57 min; in data set [4] it was 5.49 min; in data set [5], 6.09 min; in data set [6] it was 6.39 min. Further, the LC retention time in data set [7] is 5.73 min.
Take `CC(=O)NC(C)C(=O)O` (stereo unspecified) [N-ACETYLALANINE]: the LC retention time in data set [1] is 1.51 min; in data set [2], 1.52 min; in data set [3], 0.737 min; in data set [4] it was 0.74 min; in data set [5] it was 1.01 min; in data set [6], 1.19 min. In data set [7], the LC retention time is 0.853 min.
Take `O=C(O)CNC(=O)c1ccccc1` [HIPPURATE]: the LC retention time in data set [1] is 5.12 min; in data set [2], 5.11 min; in data set [3], 3.45 min; in data set [4], 3.42 min; in data set [5], 4.09 min; in data set [6], 4.54 min. For the same compound, the LC retention time in data set [7] is 3.72 min.
With `O=C(O)c1ccc(=O)[nH]c1` [6-HYDROXYNICOTINATE], the LC retention time in data set [1] is 1.59 min; in data set [2], 1.59 min; in data set [3] it was 0.787 min; in data set [4], 0.773 min; in data set [5], 1.06 min; in data set [6], 1.26 min. Also, the LC retention time in data set [7] was 0.887 min.
As to `CC(=O)Oc1ccccc1` [PHENYL ACETATE], the LC retention time is 5.43 min in data set [1]; 5.44 min in data set [2]; 3.95 min in data set [3]; 3.93 min in data set [4]; 4.5 min in data set [5]; 4.9 min in data set [6]. Also, in data set [7], the LC retention time is 4.18 min.
Regarding `Cc1cc2nc[nH]c2cc1C` [5,6 DIMETHYLBENZIMIDAZOLE], the LC retention time was 5.16 min in data set [1]; 5.17 min in data set [2]; 3.79 min in data set [3]; 3.76 min in data set [4]; 4.28 min in data set [5]; 4.67 min in data set [6]. Moreover, in data set [7], the LC retention time was 4 min.
`CC(CCC(=O)NCC(=O)O)C1CCC2C3C(O)CC4CC(O)CCC4(C)C3CCC12C` (stereo unspecified) [GLYCOCHENODEOXYCHOLATE]: the LC retention time was 10.5 min in data set [1]; 10.4 min in data set [2]; 9.09 min in data set [3]; 9.05 min in data set [4]; 9.57 min in data set [5]; 9.94 min in data set [6]. Further, the LC retention time in data set [7] was 9.28 min.
As to `O=c1ccn(C2CC(O)C(CO)O2)c(=O)[nH]1` (stereo unspecified) [DEOXYURIDINE], the LC retention time in data set [1] is 1.41 min; in data set [2], 1.42 min; in data set [3], 0.697 min; in data set [4], 0.68 min; in data set [5], 0.953 min; in data set [6], 1.12 min. For the same compound, the LC retention time in data set [7] is 0.81 min.
In the case of `O=C(O)CCCCC1SCC2NC(=O)NC21` (stereo unspecified) [BIOTIN], the LC retention time in data set [1] was 5.44 min; in data set [2], 5.44 min; in data set [3] it was 4.14 min; in data set [4], 4.11 min; in data set [5] it was 4.62 min; in data set [6], 4.96 min. Moreover, the LC retention time in data set [7] is 4.34 min.
Consider `CC(CCC(=O)O)C1CCC2C3CCC4CC(O)CCC4(C)C3CCC12C` (stereo unspecified) [LITHOCHOLATE], for which the LC retention time is 14.4 min in data set [1]; 14.4 min in data set [2]; 12.4 min in data set [3]; 12.4 min in data set [4]; 13.1 min in data set [5]; 13.7 min in data set [6]. Further, the LC retention time in data set [7] is 12.7 min.
